The values that follow come from patent US7071187B2, “Naphthyridine derivatives” (Otsuka Pharmaceutical Factory, Inc., priority 2001, dated 2006).

For data set [1], the system named is male S.D. rats injected with Substance P. Nature of the data set: Pharmacological Test 3: analgesic effect (Randall-Sellitto pain threshold after Substance P injection). It is filed as in vivo, rat. The settings on record: for analgesic effect (in words): conclusion from Table 15; for Recovery rate (%) of the pain threshold (highest recovery rate): oral, 5% gum arabic suspension 10 ml/kg, measurement point 60 minutes after Substance P injection. On the procedure:
Pharmacological Test 3 Test for Evaluating Analgesic Effect Using two groups (test group and control group) each consisting of 6-week-old male S.D. rats (7 rats in each group), the pain threshold of each rat's left hind paw was measured using an Analgesy-meter (product of Unicom) in accordance with the Randall-Sellitto method [Randall, L. O. and Sellitto, J. J., Arch. Int. Pharmacodyn., 111, 409–419 (1957)]. The value thus obtained was termed “pre-value”. One hour after the measurement of the pre-value, a 5% gum arabic suspension containing compound of the invention was orally administered to the rats of the test group in an amount of 10 ml/kg, whereas a 5% gum arabic suspension (not containing compound of the invention) was orally administered to the rats of the control group in an amount of 10 ml/kg. One hour after the oral administration, a physiological saline solution containing Substance P (25 ng/0.1 ml) was subcutaneously injected into the left hind paw of each rat. The pain threshold of each rat's left hind paw was measured in the same manner as above at predetermined time intervals after the Substance P injection. The measured value is termed the “post-value”. The recovery rate (%) of the pain threshold was calculated from the post-values and pre-values of the test group and control group, by means of the following formula: [formula]

Data set [2] relates to streptozotocin (STZ) treated male S.D. rats. Nature of the data set: Pharmacological Test 1: therapeutic effect on diabetic neuropathy (Randall-Selitto pain threshold in STZ rats). Format: in vivo, rat. To be noted: 30 mg/kg orally once a day, three hours after administration, left hind paw. On the procedure: Pharmacological Test 1 Therapeutic Effect on Diabetic Neuropathy A model group was obtained by intravenously administering 50 mg/kg streptozotocin (STZ) dissolved in 0.01 M citrate buffer solution to 8-week-old male S.D. rats. After administration, five rats were housed per cage and kept therein. Three weeks after administration of STZ, the pain threshold of each rat's left hind paw to pressure stimulation was measured by Randall-Selitto Test [Randall, L. O. and Selitto, J. J. Arch. Int. Pharmacodyn., 111, 409–419 (1957)]. The value thus obtained was termed “pre-value”. […] A 5% gum arabic solution containing the test compound was orally administered as specimen to experimental animals in one of the above three groups (test group) in such a manner that each dosage of the test compound was 30 mg/kg and the amount of administered solution was 10 ml/kg, once a day for 21 continuous days. […] On the 14th and 21st days, the pain threshold of the left hind paw of the experiment animals was measured three hours after administration. The recovery rate (%) of the pain threshold was calculated by means of the following formula: Recovery rate (%)=[(T−C)/(N−C)]×100 (wherein T is the test group average value, C is the control group average value and N is the non-treated group average value.)

Data set [3] has as its system excised ilea of Hartley male guinea pigs. As to the kind of experiment: Pharmacological Test 2: adenosine enhancing effect on electrically stimulated contraction of excised ileum. The settings on record: guinea pig ileum, n=2. The method, then: Adenosine Enhancing Effect
The compounds obtained in Examples 1 and 34 were used as test compounds in the form of a dimethyl sulfoxide solution.
As experimental animals, Hartley male guinea pigs (purchased from CHARLES RIVER JAPAN, INC.) (that were in good general condition at least 6 days after the purchase) were used. The animals were housed in a cage under controlled conditions of temperature of 20 to 26° C. (actually measured value: 22.1 to 22.9° C.), humidity of 40–70% (actually measured value: 50.3–51.5%) and lighting of 12 hours/day (7:00–19:00). The animals had free access to food (solid diet, product name of Labo G Standard, product of Nosan Corporation) and tap water.
The following experiments were conducted using the excised ilea (n=2) of experimental animals (body weight at the time of testing: 316–388 g). The experimental animals were bled and slaughtered. […] The contraction reaction of samples was recorded on an ink-writing recorder (GRAPHTEC, SR-6211, SR-6221) through an isotonic transducer (product of NIHON KOHDEN CORPORATION, TD-112S). […]
That is, the nutrient solution was exchanged, electronic stimulation was applied to the samples 15 minutes after exchange of the nutrient solution, and, when contraction stabilized, adenosine was cumulatively added from 10^−6 M to 10^−5 M. The adenosine dose-response curve was then obtained, and the ED50 value was calculated. […]

With `COc1cc(Cn2c(=O)c([S+](C)CCOc3cc(OC)c(OC)c(OC)c3)c([O-])c3cccnc32)cc(OC)c1OC` (centres unmarked) [Example 15, 1-(3,4,5-trimethoxybenzyl)-3-[methyl-2-(3,4,5-trimethoxyphenoxy)ethylsulfonium]-1,8-naphthyridine-2(1H)-one-4-olate], in data set [1], the “analgesic effect (in words)” value was “excellent analgesic effect” and the “Recovery rate (%) of the pain threshold (highest recovery rate)” value (“Recovery rate (%) … (highest recovery rate)” below) was found to be 39%.

The melting point is the temperature of the solid-liquid transition. In turn, `COc1cc(COCC[S+](C)c2c([O-])c3cccnc3n(Cc3ccccc3)c2=O)cc(O)c1OC` (centres unmarked) [Example 9] returned a melting point of 132 to 134 °C.

As to `C[S+](CCOCc1ccccc1)c1c([O-])c2cccnc2n(Cc2ccccc2)c1=O` (centres unmarked) [Example 2], the melting point was 130 to 132 °C.

The compound `COc1cc(OCCC[S+](C)c2c([O-])c3cccnc3n(Cc3ccccc3)c2=O)cc(OC)c1OC` (centres unmarked) [Example 1, 1-benzyl-3-[methyl-3-(3,4,5-trimethoxyphenoxy)propylsulfonium]-1,8-naphthyridine-2(1H)-one-4-olate] yielded a melting point of 147 to 149 °C. Also, in data set [1], the “analgesic effect (in words)” value is “excellent analgesic effect” and the “Recovery rate (%) … (highest recovery rate)” value came out at 46%. The “Recovery rate (%) of the pain threshold, 14th day” value in data set [2] (14th day) is on record as 46.2%. In addition, the “Recovery rate (%) of the pain threshold, 21st day” value in data set [2] (21st day) worked out at 56.7%. Further, the “Adenosine enhancing effect (ED50(−)/ED50(+))” value in data set [3] (test compound concentration 10^−6 M) was determined as 11.11.

For the compound `C[S+](CCOCc1ccc2c(c1)OCO2)c1c([O-])c2cccnc2n(Cc2ccccc2)c1=O` (centres unmarked) [Example 7], the melting point fell in the range of 124 to 126 °C.

Compound `Cc1cc(C)c(COCC[S+](C)c2c([O-])c3cccnc3n(Cc3ccccc3)c2=O)c(C)c1` (centres unmarked) [Example 5] yielded a melting point of 165 to 167 °C.

`COc1cc(COCC[S+](C)c2c([O-])c3cccnc3n(Cc3ccccc3)c2=O)cc2c1OCO2` (centres unmarked) [Example 8] had a melting point of 84 to 87 °C.

As to `C[S+](CCCOc1ccc(Cl)cc1)c1c([O-])c2cccnc2n(Cc2ccccc2)c1=O` (centres unmarked) [Example 3], the melting point is 145 to 147 °C.

For the compound `CC[S+](CCCOc1cc(OC)c(OC)c(OC)c1)c1c([O-])c2cccnc2n(Cc2ccccc2)c1=O` (centres unmarked) [Example 34, 1-benzyl-3-[ethyl-3-(3,4,5-trimethoxyphenoxy)propylsulfonium]-1,8-naphthyridine-2(1H)-one-4-olate], the “Adenosine enhancing effect (ED50(−)/ED50(+))” value in data set [3] (test compound concentration 10^−5 M) came to 14.00.

Compound `C[S+](CCOCc1cc(C(F)(F)F)cc(C(F)(F)F)c1)c1c([O-])c2cccnc2n(Cc2ccccc2)c1=O` (centres unmarked) [Example 6] yielded a melting point of 157 to 159 °C.

`Cc1cccc(C)c1COCC[S+](C)c1c([O-])c2cccnc2n(Cc2ccccc2)c1=O` (centres unmarked) [Example 4] came in with a melting point of 161 to 163 °C.

In turn, `COc1cc(COCC[S+](C)c2c([O-])c3cccnc3n(Cc3ccccc3)c2=O)cc(OC)c1O` (centres unmarked) [Example 10] came in with a melting point of 121 to 123 °C.

As for `COc1cc(OCC[S+](C)c2c([O-])c3cccnc3n(C)c2=O)cc(OC)c1OC` (centres unmarked) [Example 36, 1-methyl-3-[methyl-2-(3,4,5-trimethoxyphenoxy)ethylsulfonium]-1,8-naphthyridine-2(1H)-one-4-olate], in data set [1], the “analgesic effect (in words)” value was “excellent analgesic effect” and the “Recovery rate (%) … (highest recovery rate)” value is reported as 111%.
